According to PubChem BioAssay AID248 (DTP/NCI, 2004):
Values joined by “and” are separate entries in the source; they are usually repeats but may differ in a detail not shown here. Equal entries are not always repeated. Inconclusive results and toxic doses are left out.

Tested on: L1210 leukemia ip in BDF1 mice, survival T/C
Assay: NCI In Vivo Anticancer Drug Screen. Data for tumor model L1210 Leukemia (intraperitoneal) in B6D2F1 (BDF1) mice
Settings: endpoint: mean survival time, higher = longer survival
Procedure, shortened: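 Ratio derived from survival: compound-dosed mice over vehicle-dosed mice, all bearing a transplantable tumor.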

[1] = dose: 50.0 mg/kg/injection, schedule: Q01DX009 (ip), vehicle: saline
[2] = dose: 100.0 mg/kg/injection, schedule: Q04DX003 (ip), vehicle: saline with Tween-80
[3] = dose: 200.0 mg/kg/injection, schedule: Q04DX003 (ip), vehicle: saline with Tween-80
[4] = dose: 400.0 mg/kg/injection, schedule: Q04DX003 (ip), vehicle: saline with Tween-80
[5] = dose: 100.0 mg/kg/injection, schedule: Q01DX001 (ip), vehicle: carboxymethylcellulose (CMC)
[6] = dose: 200.0 mg/kg/injection, schedule: Q01DX001 (ip), vehicle: carboxymethylcellulose (CMC)
[7] = dose: 400.0 mg/kg/injection, schedule: Q01DX001 (ip), vehicle: carboxymethylcellulose (CMC)
[8] = dose: 200.0 mg/kg/injection, schedule: Q01DX009 (ip), vehicle: saline with Tween-80

C=C1C(=O)OC2CC(C)C3CC(O)OC(O)C3(C)CC12 (stereo not drawn)
T/C (dose: 0.39 mg/kg/injection, schedule: Q01DX005 (ip), vehicle: water): 108 % of control
T/C (dose: 0.78 mg/kg/injection, schedule: Q01DX005 (ip), vehicle: water): 108 % of control
T/C (dose: 1.56 mg/kg/injection, schedule: Q01DX005 (ip), vehicle: water): 106 % of control
T/C (dose: 3.13 mg/kg/injection, schedule: Q01DX005 (ip), vehicle: water): 106 % of control
T/C (dose: 6.25 mg/kg/injection, schedule: Q01DX005 (ip), vehicle: water): 104 % of control

NC1=NC(CNC(=O)c2cccc([N+](=O)[O-])c2)N(c2cccc(Cl)c2)C(N)=N1 (stereo not drawn)
T/C (dose: 50.0 mg/kg/injection, schedule: Q01DX Z (ip), vehicle: methylcellulose (MC)): 93 % of control

CC1CCN(C(=O)CC#N)CC1
T/C [1]: 108 % of control
T/C (dose: 100.0 mg/kg/injection, schedule: Q01DX009 (ip), vehicle: saline): 112 % of control
T/C (dose: 100.0 mg/kg/injection, schedule: Q04DX002 (ip), vehicle: saline): 102 % of control
T/C (dose: 200.0 mg/kg/injection, schedule: Q04DX002 (ip), vehicle: saline): 102 % of control

O=C(SCCNC(=O)N1CCCCC1)Sc1ccccc1
T/C [2]: 105 % of control
T/C [3]: 101 % of control
T/C [4]: 114 % of control

CC(=O)OCc1ccc(Cl)c(Cl)c1
T/C (dose: 50.0 mg/kg/injection, schedule: Q01DX009 (ip), vehicle: saline sonified): 100 % of control
T/C (dose: 100.0 mg/kg/injection, schedule: Q01DX009 (ip), vehicle: saline sonified): 100 % of control
T/C (dose: 100.0 mg/kg/injection, schedule: Q04DX003 (ip), vehicle: saline sonified): 101 % of control
T/C (dose: 200.0 mg/kg/injection, schedule: Q01DX009 (ip), vehicle: saline sonified): 97 % of control
T/C (dose: 200.0 mg/kg/injection, schedule: Q04DX003 (ip), vehicle: saline sonified): 107 % of control
T/C (dose: 400.0 mg/kg/injection, schedule: Q04DX003 (ip), vehicle: saline sonified): 106 % of control

NN1C(=O)Cc2ccccc2C1=O
T/C [5]: 102 % of control
T/C [2]: 101 % of control
T/C [6]: 93 % of control
T/C [3]: 101 % of control
T/C [7]: 96 % of control
T/C [4]: 116 % of control

CC(C)NC(=O)Oc1ccc(Br)cc1Br
T/C (dose: 100.0 mg/kg/injection, schedule: Q01DX009 (ip), vehicle: Klucel (hydroxypropylcellulose) (HPC)): 109 % of control
T/C (dose: 200.0 mg/kg/injection, schedule: Q01DX009 (ip), vehicle: Klucel (hydroxypropylcellulose) (HPC)): 104 % of control
T/C (dose: 400.0 mg/kg/injection, schedule: Q01DX009 (ip), vehicle: Klucel (hydroxypropylcellulose) (HPC)): 113 % of control

COn1c(=O)[nH]c2ccccc2c1=O
T/C (dose: 100.0 mg/kg/injection, schedule: Q01DX009 (ip), vehicle: saline with Tween-80): 94 % of control
T/C [8]: 91 % of control
T/C (dose: 400.0 mg/kg/injection, schedule: Q01DX009 (ip), vehicle: saline with Tween-80): 97 % of control

N#CCCC(C#N)(c1ccncc1)N1CCOCC1 (stereo not drawn)
T/C (dose: 12.5 mg/kg/injection, schedule: Q01DX009 (ip), vehicle: saline with Tween-80): 105 % of control
T/C (dose: 25.0 mg/kg/injection, schedule: Q01DX009 (ip), vehicle: saline with Tween-80): 102 % of control
T/C (dose: 50.0 mg/kg/injection, schedule: Q01DX009 (ip), vehicle: saline with Tween-80): 94 % of control and 91 % of control

CCC(C)OC(=O)C(C)OC(=O)OCCOCCOC(=O)OC(C)C(=O)OC(C)CC (stereo not drawn)
T/C (dose: 100.0 mg/kg/injection, schedule: Q01DX001 (ip), vehicle: saline): 96 % of control
T/C (dose: 200.0 mg/kg/injection, schedule: Q01DX001 (ip), vehicle: saline): 100 % of control
T/C (dose: 400.0 mg/kg/injection, schedule: Q01DX001 (ip), vehicle: saline): 96 % of control

CN1CCC(COC(=O)C(O)(c2ccccc2)c2ccccc2)C1 (stereo not drawn)
T/C (dose: 25.0 mg/kg/injection, schedule: Q04DX003 (ip), vehicle: saline with Tween-80): 97 % of control
T/C (dose: 50.0 mg/kg/injection, schedule: Q04DX003 (ip), vehicle: saline with Tween-80): 94 % of control
T/C [2]: 101 % of control and 87 % of control

O=[N+]([O-])c1ccc2c(c1)Cc1cc(O)c(I)cc1-2
T/C [5]: 101 % of control
T/C [6]: 101 % of control
T/C [7]: 97 % of control

CCCc1nc2ccccc2c(=O)n1/N=C/c1ccc(OC)cc1
T/C (dose: 100.0 mg/kg/injection, schedule: Q04DX002 (ip), vehicle: Klucel (hydroxypropylcellulose) (HPC)): 96 % of control
T/C (dose: 200.0 mg/kg/injection, schedule: Q04DX002 (ip), vehicle: Klucel (hydroxypropylcellulose) (HPC)): 99 % of control
T/C (dose: 400.0 mg/kg/injection, schedule: Q04DX002 (ip), vehicle: Klucel (hydroxypropylcellulose) (HPC)): 101 % of control

O=C(Nc1cccc(C2=NCCN2)c1)c1ccc(OCCCOc2ccc(C(=O)Nc3cccc(C4=NCCN4)c3)cc2)cc1
T/C (dose: 9.0 mg/kg/injection, schedule: Q01DX Z (ip), vehicle: saline): 113 % of control
T/C (dose: 12.0 mg/kg/injection, schedule: Q01DX Z (ip), vehicle: water): 107 % of control
T/C (dose: 13.0 mg/kg/injection, schedule: Q01DX Z (ip), vehicle: saline): 107 % of control
T/C (dose: 20.0 mg/kg/injection, schedule: Q01DX Z (ip), vehicle: saline): 112 % of control
T/C (dose: 25.0 mg/kg/injection, schedule: Q01DX Z (ip), vehicle: water): 111 % of control

O=C(O)CCCNCc1cc(=O)[nH]c(=O)[nH]1
T/C (dose: 100.0 mg/kg/injection, schedule: Q04DX003 (ip), vehicle: saline): 101 % of control

CN(Cc1ccccc1)/N=N/c1nc[nH]c1C(N)=O
T/C (dose: 4.0 mg/kg/injection, schedule: Q01DX009 (ip), vehicle: saline with Tween-80): 98 % of control
T/C (dose: 8.0 mg/kg/injection, schedule: Q01DX009 (ip), vehicle: saline with Tween-80): 103 % of control
T/C (dose: 22.0 mg/kg/injection, schedule: Q01DX009 (ip), vehicle: saline with Tween-80): 98 % of control
T/C (dose: 25.0 mg/kg/injection, schedule: Q01DX009 (ip), vehicle: water): 122 % of control
T/C (dose: 35.0 mg/kg/injection, schedule: Q01DX009 (ip), vehicle: saline with Tween-80): 117 % of control
T/C (dose: 50.0 mg/kg/injection, schedule: Q01DX001 (ip), vehicle: water): 102 % of control
T/C [1]: 124 % of control
T/C (dose: 50.0 mg/kg/injection, schedule: Q04DX003 (ip), vehicle: water): 105 % of control
T/C (dose: 100.0 mg/kg/injection, schedule: Q01DX001 (ip), vehicle: other): 104 % of control
T/C (dose: 100.0 mg/kg/injection, schedule: Q01DX001 (ip), vehicle: water): 108 % of control
T/C (dose: 100.0 mg/kg/injection, schedule: Q01DX009 (ip), vehicle: acetone): 181 % of control
T/C (dose: 100.0 mg/kg/injection, schedule: Q01DX009 (ip), vehicle: water): 171 % of control and 175 % of control
T/C (dose: 100.0 mg/kg/injection, schedule: Q04DX003 (ip), vehicle: other): 102 % of control
T/C (dose: 200.0 mg/kg/injection, schedule: Q01DX001 (ip), vehicle: other): 108 % of control
T/C (dose: 200.0 mg/kg/injection, schedule: Q01DX001 (ip), vehicle: water): 113 % of control
T/C (dose: 200.0 mg/kg/injection, schedule: Q01DX009 (ip), vehicle: acetone): 150 % of control
T/C [8]: 176 % of control
T/C (dose: 200.0 mg/kg/injection, schedule: Q01DX009 (ip), vehicle: water): 106 % of control and 113 % of control
T/C (dose: 200.0 mg/kg/injection, schedule: Q04DX003 (ip), vehicle: other): 122 % of control
T/C (dose: 400.0 mg/kg/injection, schedule: Q01DX001 (ip), vehicle: other): 112 % of control
T/C (dose: 400.0 mg/kg/injection, schedule: Q01DX009 (ip), vehicle: acetone): 87 % of control
T/C (dose: 400.0 mg/kg/injection, schedule: Q04DX003 (ip), vehicle: other): 155 % of control

C=CC12COC(=O)C(=C)C1C1OC(=O)C(=C)C1C(O)C2 (stereo not drawn)
T/C (dose: 2.5 mg/kg/injection, schedule: Q01DX009 (ip), vehicle: saline + alcohol): 102 % of control
T/C (dose: 4.0 mg/kg/injection, schedule: Q01DX009 (ip), vehicle: saline): 104 % of control
T/C (dose: 4.0 mg/kg/injection, schedule: Q01DX009 (ip), vehicle: water): 103 % of control
T/C (dose: 5.0 mg/kg/injection, schedule: Q01DX009 (ip), vehicle: saline + alcohol): 110 % of control
T/C (dose: 6.0 mg/kg/injection, schedule: Q01DX009 (ip), vehicle: saline): 113 % of control
T/C (dose: 8.0 mg/kg/injection, schedule: Q01DX009 (ip), vehicle: saline): 124 % of control
T/C (dose: 8.0 mg/kg/injection, schedule: Q01DX009 (ip), vehicle: water): 118 % of control
T/C (dose: 10.0 mg/kg/injection, schedule: Q01DX009 (ip), vehicle: saline): 111 % of control

C1CNC2CCCC2C1 (stereo not drawn)
T/C (dose: 75.0 mg/kg/injection, schedule: Q01DX001 (ip), vehicle: carboxymethylcellulose (CMC)): 103 % of control
